The assay deals with CD8F1 mice, subcutaneous mammary adenocarcinoma, T/C%. Put plainly: NCI In Vivo Anticancer Drug Screen. Data for tumor model Mammary Adenocarcinoma CD8F1 (subcutaneous) in CD8F1. The note with it: higher = larger tumour. Put shortly: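 Transplantable tumors were established in mice, animals were dosed with compound or vehicle, and survival or tumor size was then measured in both groups. The treated result was divided by the control result.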

[1] abbreviates: endpoint: median tumor weight (est.), dose: 100.0 mg/kg/injection, schedule: Q07DX005 (ip), vehicle: saline.
Setting [2] is: endpoint: median tumor weight (est.), dose: 200.0 mg/kg/injection, schedule: Q07DX005 (ip), vehicle: saline.
Setting [3] is: endpoint: median tumor weight (est.), dose: 400.0 mg/kg/injection, schedule: Q07DX005 (ip), vehicle: saline.
The mark [4] stands for this setting: endpoint: median tumor weight (est.), dose: 64.0 mg/kg/injection, schedule: Q07DX005 (ip), vehicle: saline.
Where [5] appears, read: endpoint: median tumor weight change, dose: 125.0 mg/kg/injection, schedule: Q01DX001 (ip), vehicle: saline.
The mark [6] stands for this setting: endpoint: median tumor weight (est.), dose: 25.0 mg/kg/injection, schedule: Q07DX005 (ip), vehicle: Klucel (hydroxypropylcellulose) (HPC).
Where [7] appears, read: endpoint: median tumor weight (est.), dose: 200.0 mg/kg/injection, schedule: Q07DX005 (ip), vehicle: Klucel (hydroxypropylcellulose) (HPC).
[8] abbreviates: endpoint: median tumor weight (est.), dose: 400.0 mg/kg/injection, schedule: Q07DX005 (ip), vehicle: Klucel (hydroxypropylcellulose) (HPC).

Each structure is given as a SMILES string. Several values for one entry are separate records, joined by “and”; a condition that tells them apart may be missing. Equal values may be shown once. Records with an inconclusive call do not appear.

As for `c1cc2n(n1)CCN2`, the T/C was 76 % of control (endpoint: median tumor weight (est.), dose: 12.5 mg/kg/injection, schedule: Q07DX005 (ip), vehicle: saline); 94 % of control (endpoint: median tumor weight (est.), dose: 25.0 mg/kg/injection, schedule: Q07DX005 (ip), vehicle: saline); 102 % of control (endpoint: median tumor weight (est.), dose: 50.0 mg/kg/injection, schedule: Q07DX005 (ip), vehicle: saline); 85 % of control under setting [1]; 54 % of control under setting [2]; 46 % of control under setting [3].

With `[Cl][Mn][Cl]`, the T/C is, setting by setting: under setting [4], 111 % of control; (endpoint: median tumor weight (est.), dose: 128.0 mg/kg/injection, schedule: Q07DX005 (ip), vehicle: saline) 66 % of control.

With `O=C(O)C1CC(O)CN1` (configuration not stated), the T/C is 71 % of control under setting [5]; 64 % of control and 78 % of control (endpoint: median tumor weight change, dose: 250.0 mg/kg/injection, schedule: Q01DX001 (ip), vehicle: saline); 59 % of control and 69 % of control (endpoint: median tumor weight change, dose: 500.0 mg/kg/injection, schedule: Q01DX001 (ip), vehicle: saline); 66 % of control and 70 % of control (endpoint: median tumor weight change, dose: 1000.0 mg/kg/injection, schedule: Q01DX001 (ip), vehicle: saline); 13 % of control and 15 % of control (endpoint: median tumor weight change, dose: 2000.0 mg/kg/injection, schedule: Q01DX001 (ip), vehicle: saline).

Regarding `CCOC(=O)CNC(=O)CCCCSc1ncnc2nc[nH]c12`, the T/C runs as follows: (endpoint: mean tumor weight, dose: 20.0 mg/kg/injection, schedule: Q07DX005 (ip), vehicle: saline) 121 % of control; (endpoint: mean tumor weight, dose: 40.0 mg/kg/injection, schedule: Q07DX005 (ip), vehicle: saline) 84 % of control; (endpoint: mean tumor weight, dose: 80.0 mg/kg/injection, schedule: Q07DX005 (ip), vehicle: saline) 48 % of control; (endpoint: mean tumor weight, dose: 160.0 mg/kg/injection, schedule: Q07DX005 (ip), vehicle: saline) 39 % of control; (endpoint: mean tumor weight, dose: 320.0 mg/kg/injection, schedule: Q07DX005 (ip), vehicle: saline) 67 % of control; (endpoint: mean tumor weight, dose: 640.0 mg/kg/injection, schedule: Q07DX005 (ip), vehicle: saline) 45 % of control. For the same compound, the T/C by setting is: (endpoint: median tumor weight (est.), dose: 20.0 mg/kg/injection, schedule: Q07DX004 (ip), vehicle: saline) 78 % of control; (endpoint: median tumor weight (est.), dose: 40.0 mg/kg/injection, schedule: Q07DX004 (ip), vehicle: saline) 63 % of control; (endpoint: median tumor weight (est.), dose: 80.0 mg/kg/injection, schedule: Q07DX004 (ip), vehicle: saline) 40 % of control; (endpoint: median tumor weight (est.), dose: 160.0 mg/kg/injection, schedule: Q07DX004 (ip), vehicle: saline) 97 % of control; (endpoint: median tumor weight (est.), dose: 320.0 mg/kg/injection, schedule: Q07DX004 (ip), vehicle: saline) 109 % of control.

Turning to `Cc1c(N)nc([C@H](CC(N)=O)NC[C@H](N)C(N)=O)nc1C(=O)N[C@H](C(=O)N[C@H](C)[C@@H](O)[C@H](C)C(=O)N[C@H](C(=O)NCCc1nc(-c2nc(C(=O)NCCC[S+](C)C)cs2)cs1)[C@@H](C)O)C(OC1OC(CO)C(O)C(O)C1OC1OC(CO)C(O)C(OC(N)=O)C1O)c1cnc[nH]1` (some centres not stated), the T/C runs as follows: (endpoint: median tumor weight (est.), dose: 1.0 mg/kg/injection, schedule: Q07DX006 (ip), vehicle: saline) 93 % of control; (endpoint: median tumor weight (est.), dose: 2.0 mg/kg/injection, schedule: Q07DX005 (ip), vehicle: saline) 25 % of control; (endpoint: median tumor weight (est.), dose: 2.0 mg/kg/injection, schedule: Q07DX006 (ip), vehicle: saline) 100 % of control; (endpoint: median tumor weight (est.), dose: 8.0 mg/kg/injection, schedule: Q07DX006 (ip), vehicle: saline) 55 % of control; (endpoint: median tumor weight (est.), dose: 16.0 mg/kg/injection, schedule: Q07DX005 (ip), vehicle: saline) 10 % of control and 13 % of control and 23 % of control; (endpoint: median tumor weight (est.), dose: 16.0 mg/kg/injection, schedule: Q07DX006 (ip), vehicle: saline) 61 % of control. For the same compound, the T/C (endpoint: median tumor weight (est.), dose: 32.0 mg/kg/injection, schedule: Q07DX005 (ip), vehicle: saline) is 6 % of control and 7 % of control; the T/C (endpoint: median tumor weight (est.), dose: 32.0 mg/kg/injection, schedule: Q07DX006 (ip), vehicle: saline) was 8 % of control; the T/C under setting [4] is 2 % of control; the T/C (endpoint: median tumor weight change, dose: 4.0 mg/kg/injection, schedule: Q01DX001 (ip), vehicle: saline) is 124 % of control.

As to `O=C1C(O)=C(c2ccccc2)C(=O)C(O)=C1c1ccccc1`, the T/C (endpoint: median tumor weight change, dose: 31.0 mg/kg/injection, schedule: Q01DX001 (ip), vehicle: saline with Tween-80) is 105 % of control; the T/C (endpoint: median tumor weight change, dose: 62.0 mg/kg/injection, schedule: Q01DX001 (ip), vehicle: saline with Tween-80) was 58 % of control; the T/C (endpoint: median tumor weight change, dose: 125.0 mg/kg/injection, schedule: Q01DX001 (ip), vehicle: saline with Tween-80) is 104 % of control.

Take `CCC(C(=O)O)C(=O)O.[NH2-].[NH2-].[Pt+2]`: the T/C is, setting by setting: (endpoint: median tumor weight change, dose: 15.62 mg/kg/injection, schedule: Q01DX001 (ip), vehicle: saline) 172 % of control; (endpoint: median tumor weight change, dose: 16.0 mg/kg/injection, schedule: Q01DX001 (ip), vehicle: saline) 121 % of control; (endpoint: median tumor weight change, dose: 31.0 mg/kg/injection, schedule: Q01DX001 (ip), vehicle: saline) 46 % of control; (endpoint: median tumor weight change, dose: 31.25 mg/kg/injection, schedule: Q01DX001 (ip), vehicle: saline) 87 % of control; (endpoint: median tumor weight change, dose: 62.0 mg/kg/injection, schedule: Q01DX001 (ip), vehicle: saline) 68 % of control; (endpoint: median tumor weight change, dose: 62.5 mg/kg/injection, schedule: Q01DX001 (ip), vehicle: saline) 92 % of control. Further, the T/C under setting [5] is 2 % of control and 26 % of control.

`O=c1cnn(C2OC(CO)C(O)C2O)c(=O)[nH]1` (configuration not stated): the T/C reads like this: (endpoint: mean tumor weight, dose: 125.0 mg/kg/injection, schedule: Q07DX004 (ip), vehicle: saline) 67 % of control; (endpoint: mean tumor weight, dose: 250.0 mg/kg/injection, schedule: Q07DX004 (ip), vehicle: saline) 49 % of control; (endpoint: median tumor weight (est.), dose: 100.0 mg/kg/injection, schedule: Q07DX005 (ip), vehicle: saline with Tween-80) 63 % of control; under setting [1], 17 % of control; (endpoint: median tumor weight (est.), dose: 200.0 mg/kg/injection, schedule: Q07DX005 (ip), vehicle: saline with Tween-80) 95 % of control; under setting [2], 63 % of control. The T/C (endpoint: median tumor weight (est.), dose: 400.0 mg/kg/injection, schedule: Q07DX005 (ip), vehicle: saline with Tween-80) is 53 % of control; the T/C under setting [3] is 41 % of control; the T/C (endpoint: median tumor weight (est.), dose: 800.0 mg/kg/injection, schedule: Q07DX005 (ip), vehicle: saline with Tween-80) was 66 % of control; the T/C (endpoint: median tumor weight (est.), dose: 800.0 mg/kg/injection, schedule: Q07DX005 (ip), vehicle: saline) is 64 % of control; the T/C (endpoint: median tumor weight (est.), dose: 1600.0 mg/kg/injection, schedule: Q07DX005 (ip), vehicle: saline with Tween-80) was 68 % of control; the T/C (endpoint: median tumor weight (est.), dose: 3200.0 mg/kg/injection, schedule: Q07DX005 (ip), vehicle: saline with Tween-80) is 54 % of control. Besides, the T/C (endpoint: median tumor weight (est.), dose: 3200.0 mg/kg/injection, schedule: Q07DX005 (ip), vehicle: saline) was 76 % of control.

Regarding `NC(Cc1cc([N+](=O)[O-])ccc1CN(CCCl)CCCl)C(=O)O` (configuration not stated), the T/C (endpoint: median tumor weight (est.), dose: 2.0 mg/kg/injection, schedule: Q07DX005 (ip), vehicle: Klucel (hydroxypropylcellulose) (HPC)) is 8 % of control.

As to `Cc1ccc(C2NC(=S)N3C(c4ccc(C)cc4)NC(=S)N23)cc1` (configuration not stated), the T/C is 77 % of control (endpoint: median tumor weight change, dose: 125.0 mg/kg/injection, schedule: Q01DX001 (ip), vehicle: Klucel (hydroxypropylcellulose) (HPC)); 104 % of control (endpoint: median tumor weight change, dose: 250.0 mg/kg/injection, schedule: Q01DX001 (ip), vehicle: Klucel (hydroxypropylcellulose) (HPC)); 107 % of control (endpoint: median tumor weight change, dose: 500.0 mg/kg/injection, schedule: Q01DX001 (ip), vehicle: Klucel (hydroxypropylcellulose) (HPC)); 94 % of control (endpoint: median tumor weight change, dose: 1000.0 mg/kg/injection, schedule: Q01DX001 (ip), vehicle: Klucel (hydroxypropylcellulose) (HPC)); 68 % of control (endpoint: median tumor weight change, dose: 2000.0 mg/kg/injection, schedule: Q01DX001 (ip), vehicle: Klucel (hydroxypropylcellulose) (HPC)).

Regarding `ClCCCCCCCCCCc1ccccc1`, the T/C (endpoint: median tumor weight (est.), dose: 12.5 mg/kg/injection, schedule: Q07DX005 (ip), vehicle: Klucel (hydroxypropylcellulose) (HPC)) is 87 % of control; the T/C under setting [6] was 88 % of control; the T/C (endpoint: median tumor weight (est.), dose: 100.0 mg/kg/injection, schedule: Q07DX005 (ip), vehicle: Klucel (hydroxypropylcellulose) (HPC)) was 71 % of control; the T/C under setting [7] was 71 % of control; the T/C under setting [8] is 72 % of control.

As for `O=S(=O)(SC(S(=O)(=O)c1ccccc1)S(=O)(=O)c1ccccc1)c1ccccc1`, the T/C was 55 % of control under setting [6]; 90 % of control (endpoint: median tumor weight (est.), dose: 50.0 mg/kg/injection, schedule: Q07DX005 (ip), vehicle: Klucel (hydroxypropylcellulose) (HPC)); 112 % of control under setting [7]; 70 % of control under setting [8].
